Patent publication US12558430B2, “Dual amylin and calcitonin receptor agonists and uses thereof” (Eli Lilly and Company, priority 2020, dated 2026)
Like-named read-outs stand apart in the source and are kept apart here. Starred links: 1 amine or outer side, 2 acyl side, 3 side chain; linkers in the order of their positions; H or OH if unused. Non-standard residues stand in square brackets, D forms with d. Residues, ends and D or L forms follow the SMILES beside them. Groups on a side chain read outwards from the residue. *: point of attachment. C20 diacid = O=C(O)CCCCCCCCCCCCCCCCCCC(=O)*; γGlu = O=C(O)[C@H](CCC(=O)[*:2])N[*:1]; AEEA = NCCOCCOCC(=O)O; Aib = CC(C)(N)C(=O)O

Columns and labels:
[1] = target: human AMY1 receptor (Homo sapiens, UniProt O60894+P30988); assay: hAMY1 cAMP functional assay (HTRF); format: cell-based
Sequence of human AMY1 receptor (O60894 27-148, one chain of several): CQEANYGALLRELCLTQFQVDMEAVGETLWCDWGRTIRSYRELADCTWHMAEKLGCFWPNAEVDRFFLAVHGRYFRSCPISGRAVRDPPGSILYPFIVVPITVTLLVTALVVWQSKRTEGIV
Experimental: The AMY1 and CT receptors are GPCRs that are functionally coupled to Gαs proteins. Stimulation of these receptors results in an increased production of intracellular cAMP, which can be detected using standard in vitro technologies. Human AMY1 or CT receptors are stably expressed in human urinary bladder cells (UM-UC-3) cells under control of a pcDNA (CALCR) or pCMV piggybac (RAMP1) expression vector. AMY1 cells are cultured in MEM 1X (Corning) supplemented with 10% FBS, 1% antibiotic/antimycotic solution, 1 mM sodium pyruvate, 1X MEM NEAA, 1X GlutaMAX-I, 200 μg/mL hygromycin B, and 0.4 μg/mL puromycin. CT cells are cultured in the same medium except that it lacks the puromycin. Cultured cells are grown to 70% confluency, and then incubated overnight with fresh medium.
On the assay day, 10 μL of assay buffer (phenol red free MEM (Corning, cat #17-305-CV), 0.1% casein, 0.5 mM IBMX, 5 mM HEPES, pH 7.4) is dispensed into each well of white poly-D-lysine coated 384-well plates (Corning cat #354661). […]
The amount of intracellular cAMP is quantitated using HTRF technology (Homogeneous Time Resolved Fluorescence; Cisbio) as per vendor instructions. […] The HTRF signal is immediately detected using an Envision plate reader (Perkin-Elmer) to calculate the ratio of fluorescence at 665 to 620 nm. […]

[2] = test system: Primary human dendritic cells
[3] = Monkey pharmacokinetics, single subcutaneous dose; format: in vivo; conditions: cynomolgus monkey, plasma, sc, 20 nmol/kg, single 20 nmol/kg SC
Experimental: (§1) Plasma concentration of Compound II is determined by a qualified Liquid Chromatography Mass Spectrometry (LC/MS) method at Q Squared Solutions BioSciences LLC, Ithaca, N.Y. Compound II and an analog as an internal standard are extracted from 100% species-specific plasma using protein precipitation followed by solid phase extraction. The intact mass of Compound II which includes peptide plus acyl chain is detected by a Q-Exactive Orbitrap™ mass spectrometer.
In a monkey pharmacokinetics study, male and female Cynomolgus monkeys are administered a single subcutaneous dose of 20 nmol/kg (0.084 mg/kg) of Compound II in Tris-mannitol buffer (pH 8.0) at a volume of 0.2 mL/kg. Blood is collected predose and at 1, 3, 6, 12, 24, 48, 72, 96, 120, 144, 168, 240, 336, 408, 504 hours postdose for pharmacokinetic characterization.

[4] = test system: CD4+ T cells
Experimental: Cryopreserved PBMCs were used from ten healthy donors and the CD8+ T cells were depleted from the PBMCs and labeled with 1 μM Carboxyfluorescein Diacetate Succinimidyl Ester (CFSE). […] Cells were cultured and incubated for 7 days at 37° C. with 5% CO2. On day 7, samples were stained with the following cell surface markers: anti-CD3, anti-CD4, anti-CD14, anti-CD19, and DAPI for viability detection by flow cytometry using a BD LSRFortessa™, equipped with a High Throughput Sampler (HTS). Data was analyzed using FlowJo® Software (FlowJo, LLC, TreeStar) and a Cellular Division Index (CDI) was calculated. Briefly, the CDI for each test candidate's MAPPs-derived peptide cluster was calculated by dividing the percent of proliferating CFSE^dimCD4+ T cells from peptide-stimulated wells by the percent of proliferating CFSE^dimCD4+ T cells in the unstimulated wells. A CDI of ≥2.5 was considered to represent a positive response. A percent donor frequency across all donors was evaluated.

[5] = target: T1, human CT receptor (Homo sapiens, UniProt P30988); assay: hCT cAMP functional assay (HTRF); format: cell-based
T1 sequence (P30988 25-474): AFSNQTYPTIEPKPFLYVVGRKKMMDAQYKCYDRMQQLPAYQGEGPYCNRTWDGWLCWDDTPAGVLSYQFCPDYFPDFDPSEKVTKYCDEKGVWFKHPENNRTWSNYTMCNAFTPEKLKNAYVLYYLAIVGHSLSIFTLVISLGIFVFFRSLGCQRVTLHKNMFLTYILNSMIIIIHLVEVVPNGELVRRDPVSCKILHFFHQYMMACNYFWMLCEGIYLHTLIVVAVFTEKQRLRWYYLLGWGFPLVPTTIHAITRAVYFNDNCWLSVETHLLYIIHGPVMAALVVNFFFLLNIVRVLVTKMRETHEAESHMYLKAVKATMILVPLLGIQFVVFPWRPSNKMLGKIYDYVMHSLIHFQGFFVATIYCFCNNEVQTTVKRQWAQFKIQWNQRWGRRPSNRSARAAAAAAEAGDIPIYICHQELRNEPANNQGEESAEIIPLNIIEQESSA
Experimental: The AMY1 and CT receptors are GPCRs that are functionally coupled to Gαs proteins. […] Human AMY1 or CT receptors are stably expressed in human urinary bladder cells (UM-UC-3) cells under control of a pcDNA (CALCR) or pCMV piggybac (RAMP1) expression vector. AMY1 cells are cultured in MEM 1X (Corning) supplemented with 10% FBS, 1% antibiotic/antimycotic solution, 1 mM sodium pyruvate, 1X MEM NEAA, 1X GlutaMAX-I, 200 μg/mL hygromycin B, and 0.4 μg/mL puromycin. CT cells are cultured in the same medium except that it lacks the puromycin. Cultured cells are grown to 70% confluency, and then incubated overnight with fresh medium.
Peptides diluted in DMSO are added (200 nL/well) in a 1:3 dilution series using ECHO acoustic liquid handler (Beckman). Cultured cells are detached with TrypLE Express (Gibco), resuspended in assay buffer, and 10 μL containing 1200 cells/well (hCT) or 1500 cells/well (hAMY1) are dispensed into each well. The plates are incubated at room temperature for 1 hour.
The amount of intracellular cAMP is quantitated using HTRF technology (Homogeneous Time Resolved Fluorescence; Cisbio) as per vendor instructions. Briefly, 10 μL cAMP-d2 conjugate and 10 μL anti-cAMP-cryptate conjugate in lysis buffer are incubated with the treated cells at room temperature for 60 min. […]

[6] = Rat pharmacokinetics, single subcutaneous dose; format: in vivo; conditions: male, Sprague Dawley, plasma, sc, 20 nmol/kg, single 20 nmol/kg SC
Experimental: as §1
In a rat pharmacokinetic study, male Sprague Dawley rats are administered a single subcutaneous dose of 20 nmol/kg (0.084 mg/kg) of Compound II in Tris-mannitol buffer (pH 8.0) at a volume of 0.2 mL/kg. Blood is collected at 1-, 3-, 6-, 12-, 24-, 48-, 72-, 96-, 120-, and 144-hours post-dose for pharmacokinetic characterization.

[7] = test system: DIO male Long Evans rats; assay: DIO rats: Compound II in combination with other incretin compounds; format: in vivo, rat; conditions: mean ± SEM; for Cumulative Food Intake: 14-day treatment period; for Body Weight Change: Day −1 to Day 14
Experimental: This study is conducted to investigate the effect of Compound II for diabetes and/or obesity conditions in DIO rats when administered in combination with other incretin compounds, including a GLP-1 agonist (Compound III), oxyntomodulin analog (Compound IV), and a triagonist of glucagon, GLP-1, and GIP (Compound V). Diet-induced obese (DIO) male Long Evans (Envigo) rats, maintained on a calorie rich diet since arrival at Lilly (TD95217; Teklad, Madison, Wis.), are used in the following studies. Animals are individually housed in a temperature-controlled (24° C.) facility with 12-hour light/dark cycle (lights on 2200) and free access to food (TD95217) and water.
The rats are randomized according to their body weight, so that each experimental group of animals would have similar body weight. The body weights range from 529 to 823 grams.
Each group contains five rats. Vehicle and Compound II (1 nmol/kg) are dissolved in vehicle (40 mM Tris-HCl pH8+0.02% PS80) and are administered by subcutaneous (SC) injection (1 mL/kg) to ad libitum fed DIO rats 30 to 90 minutes prior to the onset of the dark cycle every 3 days for 14 days. SC injections are made on Days 1, 4, 7, 10 and 13. Body weight and food intake are measured daily throughout the study. Absolute changes in body weight are calculated by subtracting the body weight of the same animal prior to the first injection of molecule.
At the end of the study, blood is collected to measure blood glucose and plasma insulin. Blood glucose is measured by AccuChek glucometers (Roche, Indianapolis, Ind.). Insulin is measured by ELISA (MSD, Rockville, Md.).
All data are presented as mean±SEM of 5 animals per group. Statistical analysis is performed using one-way ANOVA, followed by Tukey's multiple comparison test to compare treatment groups to vehicle group or each other. Significant differences are identified at p<0.05.

[8] = background statement; cited from earlier work

In the case of `CC(=O)N[C@@H](C)C(=O)N[C@@H](CO)C(=O)N[C@@H](Cc1c[nH]cn1)C(=O)N[C@@H](CC(C)C)C(=O)N[C@@H](CO)C(=O)N[C@H](C(=O)N[C@@H](C)C(=O)N[C@H](C(=O)N[C@@H](CC(C)C)C(=O)NCC(=O)N[C@@H](CCCCNC(=O)COCCOCCNC(=O)COCCOCCNC(=O)CC[C@H](NC(=O)CCCCCCCCCCCCCCCCCCC(=O)O)C(=O)O)C(=O)N[C@@H](CC(C)C)C(=O)N[C@@H](CO)C(=O)NC(C)(C)C(=O)N[C@@H](CCC(=O)O)C(=O)N[C@@H](CC(C)C)C(=O)N[C@@H](Cc1c[nH]cn1)C(=O)N[C@@H](CCCCN)C(=O)N[C@@H](CC(C)C)C(=O)N[C@@H](CCC(=O)O)C(=O)N[C@@H](CC(=O)O)C(=O)N[C@@H](Cc1ccc(O)cc1)C(=O)N1CCC[C@H]1C(=O)N[C@@H](CCCNC(=N)N)C(=O)N[C@H](C(=O)N[C@@H](CC(=O)O)C(=O)N[C@H](C(=O)NCC(=O)N[C@@H](C)C(=O)N[C@@H](CCC(=O)O)C(=O)N[C@@H](CO)C(=O)N1CCC[C@H]1C(N)=O)C(C)C)[C@@H](C)O)C(C)C)[C@@H](C)O` [Compound II] (Ac-ASHLSTAVLGK([AEEA-AEEA-γGlu-C20 diacid])LS[Aib]ELHKLEDYPRTDVGAESP-NH2), the EC50 [1] is reported as 0.0494 ± 0.00514 nM, the “# of clusters” value [2] is reported as 0 and the “% Donors (displaying non-germline residues)” value [2] is reported as 0%. The “immunogenicity risk (MAPPs)” value [2] was “low level of immunogenicity risk”, the AUC(0-inf) ([3]; both sexes, Mean) was 47.5 µM·h and the CL/F ([3]; both sexes, Mean) was 10.1 mL/day/kg. For the same compound, the Cmax ([3]; both sexes, Mean) was 168 nM, the Tmax ([3]; both sexes, Mean) was 42 h and the half-life ([3]; both sexes, Mean) was 7.42 days. For the same compound, the AUC(0-inf) ([3]; animal P0001) was 50.4 µM·h, the CL/F ([3]; animal P0001) was 9.6 mL/day/kg and the Cmax ([3]; animal P0001) was 198 nM. The Tmax ([3]; animal P0001) was 12 h, the half-life ([3]; animal P0001) was 7.71 days and the AUC(0-inf) ([3]; animal P0101) was 44.7 µM·h. For the same compound, the CL/F ([3]; animal P0101) was 10.8 mL/day/kg, the Cmax ([3]; animal P0101) was 138 nM and the Tmax ([3]; animal P0101) was 72 h. The half-life ([3]; animal P0101) was 7.08 days, the “% Positive Donors” value [4] was 12.5% and the “CDI Range High” value [4] was 19.7. For the same compound, the “CDI Range Low” value [4] was 0.7, the “Median CDI (All donors)” value [4] was 1.0 and the “Median CDI (Positive Donors)” value [4] was 19.7. The “Number of donors (positive/tested)” value [4] was 1/8, the “immunogenicity risk (T cell proliferation)” value [4] was “low level of immunogenicity risk” and the EC50 [5] was 0.0409 ± 0.0147 nM. It also gave an AUC(0-inf) ([6]; Mean) of 8.59 µM·h, a CL/F ([6]; Mean) of 2.33 mL/h/kg and a Cmax ([6]; Mean) of 90 nM. For the same compound, the Tmax ([6]; Mean) was 24 h, the half-life ([6]; Mean) was 2.42 days and the AUC(0-inf) ([6]; animal R0001) was 8.41 µM·h. For the same compound, the CL/F ([6]; animal R0001) was 2.38 mL/h/kg, the Cmax ([6]; animal R0001) was 88 nM and the Tmax ([6]; animal R0001) was 48 h. For the same compound, the half-life ([6]; animal R0001) was 1.96 days, the AUC(0-inf) ([6]; animal R0002) was 8.7 µM·h and the CL/F ([6]; animal R0002) was 2.3 mL/h/kg. For the same compound, the Cmax ([6]; animal R0002) was 81 nM, the Tmax ([6]; animal R0002) was 12 h and the half-life ([6]; animal R0002) was 2.5 days. For the same compound, the AUC(0-inf) ([6]; animal R0003) was 8.65 µM·h, the CL/F ([6]; animal R0003) was 2.31 mL/h/kg and the Cmax ([6]; animal R0003) was 99 nM. It also gave a Tmax ([6]; animal R0003) of 12 h and a half-life ([6]; animal R0003) of 2.79 days.
With `CC(=O)N[C@@H](C)C(=O)N[C@@H](CO)C(=O)N[C@@H](Cc1c[nH]cn1)C(=O)N[C@@H](CC(C)C)C(=O)N[C@@H](CO)C(=O)N[C@H](C(=O)N[C@@H](C)C(=O)N[C@H](C(=O)N[C@@H](CC(C)C)C(=O)NCC(=O)N[C@@H](CCCCN)C(=O)N[C@@H](CC(C)C)C(=O)N[C@@H](CO)C(=O)NC(C)(C)C(=O)N[C@@H](CCC(=O)O)C(=O)N[C@@H](CC(C)C)C(=O)N[C@@H](Cc1c[nH]cn1)C(=O)N[C@@H](CCCCN)C(=O)N[C@@H](CC(C)C)C(=O)N[C@@H](CCC(=O)O)C(=O)N[C@@H](CC(=O)O)C(=O)N[C@@H](Cc1ccc(O)cc1)C(=O)N1CCC[C@H]1C(=O)N[C@@H](CCCNC(=N)N)C(=O)N[C@H](C(=O)N[C@@H](CC(=O)O)C(=O)N[C@H](C(=O)NCC(=O)N[C@@H](C)C(=O)N[C@@H](CCC(=O)O)C(=O)N[C@@H](CO)C(=O)N1CCC[C@H]1C(N)=O)C(C)C)[C@@H](C)O)C(C)C)[C@@H](C)O` [Compound I] (Ac-ASHLSTAVLGKLS[Aib]ELHKLEDYPRTDVGAESP-NH2) the EC50 [1] was 0.0493 ± 0.00804 nM and the EC50 [5] was 0.0317 ± 0.0058 nM.
For “H-Aib-QGTFTSDYSKYLDEKKAK((2-[2-(2-Amino-ethoxy)-ethoxy]-acetyl)2-(γGlu)-CO-(CH2)18-CO2H)EFVEWLLEGGPSSG-NH2 (H-H[Aib]QGTFTSDYSKYLDEKKAK([AEEA-AEEA-γGlu-C20 diacid])EFVEWLLEGGPSSG-NH2) [Compound IV, oxyntomodulin analog]”, the “Cumulative Food Intake” value ([7]; 10 nmol/kg SC every three days) was 165.86 ± 7.45 g and the “Body Weight Change” value ([7]; 10 nmol/kg SC every three days) was -50.24 ± 6.36 g.
In the case of Salmon calcitonin, the half-life [8] is given as “less than two hours”.
In the case of “Y-Aib-QGTFTSDYSI-αMeL-LDKK((2-[2-(2-Amino-ethoxy)-ethoxy]-acetyl)-(γGlu)-CO-(CH2)18-CO2H)AQ-Aib-AFIEYLLEGGPSSGAPPPS-NH2 (YXQGTFTSDYSIXLDKKAQXAFIEYLLEGGPSSGAPPPS; Aib, αMeL; lipidated Lys; C-terminal amide; SITE 2 X at position 2 is Aib; SITE 13 X at position 13 is alpha-methyl-Leu; MOD_RES 17 The Lys at position 17 is chemically modified by conjugation of the epsilon amino group of the Lys sidechain with 2-[2-(2-Amino-ethoxy)-ethoxy]-acetyl)-(gamma-Glu)-CO-(CH2)18-CO2H; SITE 20 X at position 20 is Aib; MOD_RES 39 C-terminus is amidated) [Compound V, triagonist of glucagon, GLP-1, and GIP]”, the “Cumulative Food Intake” value ([7]; 3 nmol/kg SC every three days) is reported as 157.50 ± 10.63 g and the “Body Weight Change” value ([7]; 3 nmol/kg SC every three days) is reported as -43.28 ± 2.54 g.
